Laboratory results published in patent US6693063B2, “Herbicidal composition” (Aventis CropScience GmbH, priority 2000, dated 2004).

System: monocotyledonous and dicotyledonous weeds
Assay: Greenhouse post-emergence herbicidal test, effect rated visually against untreated controls
Type: in vivo
Method: Seeds or rhizome pieces of monocotyledonous and dicotyledonous weeds were placed in sandy loam soil in plastic pots, covered with soil and grown in a greenhouse under good growth conditions. Three weeks after seeding, the test plants were treated in the three-leaf stage. The compositions of the invention, formulated as wettable powders or as emulsion concentrates, were sprayed onto the green parts of the plants at various application rates of 600-800 l of water/ha (converted). The test plants were allowed to stand in the greenhouse under optimum growth conditions for about 3 to 4 weeks, and the effect of the preparations was then rated visually in comparison to untreated controls. The compositions according to the invention have good herbicidal activity against harmful plants of economic importance.

Row | SMILES | herbicidal activity compared with a commercial formulation of bromoxynil-octanoate (300 and 600 g of AS/ha as microcapsule suspension (10%, Formulation Example 2), applied with a surfactant such as Genapol X 150, Genapol X 200, Sapogenat T130, T 200, T 300, T 400, T 500 or Genapol O 200 at 150, 300 and 600 g of surfactant/ha) | herbicidal activity compared with bromoxynil-Na applied with a surfactant having a lower content of ethylene oxide units (Genapol® 060, 6 ethylene oxide units) (bromoxynil-Na 300 g/ha in combination with a surfactant such as Genapol X 150, Genapol X 200, Sapogenat T130, T 200, T 300, T 400, T 500 or Genapol O 200 at 50, 100, 300 and 60 g/ha, post-emergence, three-leaf stage, rated after about 3 to 4 weeks)
1 | CCCCCCCC(=O)Oc1c(Br)cc(C#N)cc1Br [Bromoxynil-octanoate, bromoxynil-octanoate] | considerably higher | 
2 | N#Cc1cc(Br)c([O-])c(Br)c1.[Na+] [bromoxynil-Na, bromoxynil-sodium] |  | considerably higher
